# Data as given in EP4803523A1, “FUSED HETEROARYL COMPOUND, PREPARATION METHOD THEREFOR, AND USE THEREOF IN MEDICINE” (Jiangsu Hengrui Pharmaceuticals Co., Ltd., priority 2023, dated 2025).
# Columns and labels:
# in vivo = details: rat, in vivo, po, 20 mg/kg
# Method: Using SD rats as the test animals, the plasma concentrations of the example compounds at different time points were determined by LC-MS/MS following oral gavage (i.g.) administration. The pharmacokinetic behaviours of the compounds of the present disclosure in rats were investigated, and their pharmacokinetic profiles were evaluated.
# Blood samples (0.2 mL) were collected from the orbit before administration and at 0.25, 0.5, 1.0, 2.0, 4.0, 6.0, 8.0, 11.0, and 24.0 hours after administration. The samples were placed in EDTA-K2 anticoagulant tubes, centrifuged at 10,000 rpm for 2 minute (4°C), and the plasma was separated within 1 hour and stored at -20°C or -80°C until analysis. The entire process from blood collection to centrifugation was performed in ice bath conditions.
# The mixture was vortexed and then centrifuged at 4000 rpm for 15 minutes; the supernatant was taken for LC-MS/MS analysis. […] The mixture was vortexed and then centrifuged at 3700 rpm for 10 minutes; the supernatant was taken for LC-MS/MS analysis.
# The mixture was vortexed and then centrifuged at 4000 rpm for 15 minutes; the supernatant was taken for LC-MS/MS analysis. […] The mixture was vortexed and then centrifuged at 4000 rpm for 15 minutes; the supernatant was taken for LC-MS/MS analysis.
# AGS = experiment: 3D cell proliferation inhibition assay (CellTiter-Glo 3D); assay type: cell-based; details: Homo sapiens, 120 h; AGS cells, KRAS G12D, 3D culture, 5 days with compound
# Method: (§1) This experiment uses the cells listed in the table below to evaluate the inhibitory effects of the compounds on the proliferation of KRAS mutant or KRAS amplified cells.
# (§2) On the first day of the experiment, cells that were growing well and had reached 70%-80% confluence were digested, resuspended in culture medium, and the cell density was adjusted to the desired level. In a U-shaped low-attachment 96-well plate (Corning, 7007), 90 µL of cell suspension was added per well, with the cell density as shown in the table above. The cell plate was centrifuged at 2500 rpm for 5 minutes and then placed in an incubator for 24 hours of culture. On the second day, the 20 mM test compound dissolved in DMSO was diluted with DMSO to the first concentration of 2 or 0.2 mM, and then serially diluted in a 5-fold gradient to obtain 9 concentration points, with the control well containing DMSO. The serially diluted compound was then further diluted 20-fold with culture medium. 10 µL of the test compound diluted in culture medium was added to each well of the cell plate. The final concentrations of the compound were 9 points in a 5-fold serial dilution starting from 10 or 1 µM. Cell wells containing 0.5% DMSO were set as vehicle control wells, and wells containing only culture medium and 0.5% DMSO were set as blank control wells. The cell plate was centrifuged at 2000 rpm for 3 minutes and then placed in an incubator for 5 days of culture. On the seventh day, the 96-well cell culture plate was taken out, and 50 µL of the luminescent cell viability detection reagent, CellTiter-Glo® 3D Cell Viability Assay (Promega, G9683), was added to each well. After shaking at room temperature for 25 minutes, the mixture was pipetted up and down to mix, and 100 µL was transferred from each well to a white, opaque-bottom OptiPlate™-96 well plate (PerkinElmer, 6005290). The luminescence signal value was read using a multimode microplate reader (PerkinElmer, EnVision2105).
# (§3) The inhibition rate was calculated using the following formula: Inhibition rate = (Luminescence value vehicle control well - Luminescence value test compound)/(Luminescence value vehicle control well - Luminescence value blank control well) × 100%. The IC50 values of the compound inhibitory activity were calculated using Graphpad Prism software. Table 1. Data of inhibitory activity on 3D cell proliferation (unit: nM)
# GP2d = experiment: as above; assay type: cell-based; details: GP2d cells, KRAS G12D, 3D culture, 5 days with compound
# Method: as §1, §2, §3
# AsPC-1 = experiment: as above; assay type: cell-based; details: Homo sapiens, ASPC1, 120 h; AsPC-1 cells, KRAS G12D, 3D culture, 5 days with compound
# Method: as §1, §2, §3
Structure (SMILES),IC50 (AGS) [nM],"IC50 (GP2d; GP2d, 120 h) [nM]",other results
"N#Cc1c(N)sc2c(F)ccc(-c3c4c(c5cnc(OC[C@@]67CCCN6C[C@H](F)C7)nc5c3Cl)COC4)c12 (single isomer, unassigned) [60A (reference), reference compound]",,,AUC(0-t) (in vivo): 1820 ng·h/mL; CL/F (in vivo): 178 mL/min/kg; Cmax (in vivo): 143 ng/mL; Vd/F (in vivo): 54.5 L/kg; half-life (in vivo): 3.53 h
"N#Cc1c(N)sc2c(F)ccc(-c3c4c(c5c(N6C7CCC6CNC7)nc(OCC6(CN7CCC(=CF)CC7)CC6)nc5c3F)COC4)c12 (single isomer, unassigned) [Example 9A]",4.22,,IC50 (GP2d): 0.16 nM
"N#Cc1c(N)sc2c(F)ccc(-c3c4c(c5c(N6C7CCC6CNC7)nc(OCC6(CN7CCC(=CF)CC7)CC6)nc5c3F)COC4)c12 (single isomer, unassigned) [Example 9B]",,,IC50 (GP2d): 2.6 nM
"C[C@@H](O)CN1CC2CCC(C1)N2c1nc(OCC2(C#N)CC2)nc2c(F)c(-c3ncc(F)c4sc(N)c(C#N)c34)c3c(c12)COC3 [58 (reference), reference compound]",2000,> 1000,IC50 (AsPC-1): 3330 nM
"N#Cc1c(N)sc2c(F)ccc(-c3c4c(c5c(N6C7CCC6CNC7)nc(OCC6(CN7CCC(=C(F)F)CC7)CC6)nc5c3F)COC4)c12 [Example 11, 4-(1-(3,8-diazabicyclo[3.2.1]oct-8-yl)-3-((1-((4-(difluoromethylene)piperidin-1-yl)methyl)cyclopropyl)methoxy)-5-fluoro-7,9-dihydrofuro[3,4-f]quinazolin-6-yl)-2-amino-7-fluorobenzo[b]thiophene-3-carbonitrile]",8.64,0.86,
"N#Cc1c(N)sc2c(F)ccc(-c3c4c(c5c(N6C7CCC6CNC7)nc(OCC67CCCN6CC(=CF)C7)nc5c3F)COC4)c12 (centres unmarked) [Example 13, 4-(1-(3,8-Diazabicyclo[3.2.1]oct-8-yl)-5-fluoro-3-((2-(fluoromethylene)tetrahydro-1H-pyrrolizin-7a(5H)-yl)methoxy)-7,9-dihydrofuro[3,4-f]quinazolin-6-yl)-2-amino-7-fluorobenzo[b]thiophene-3-carbonitrile]",2.19,0.39,
"N#Cc1c(N)sc2c(F)ccc(-c3c4c(c5c(N6C7CCC6CNC7)nc(OCC67CCCN6CC(=C(F)F)C7)nc5c3F)COC4)c12 (centres unmarked) [Example 17, 4-(1-(3,8-Diazabicyclo[3.2.1]oct-8-yl)-3-((2-(difluoromethylene)tetrahydro-1H-pyrrolizin-7a(5H)-yl)methoxy)-5-fluoro-7,9-dihydrofuro[3,4-f]quinazolin-6-yl)-2-amino-7-fluorobenzo[b]thiophene-3-carbonitrile]",2.86,0.57,
"C=C1CN2CC(=C)CC2(COc2nc(N3C4CCC3CNC4)c3c4c(c(-c5ccc(F)c6sc(N)c(C#N)c56)c(F)c3n2)COC4)C1 [Example 18, 4-(1-(3,8-Diazabicyclo[3.2.1]oct-8-yl)-3-((2,6-dimethylenetetrahydro-1H-pyrrolizin-7a(5H)-yl)methoxy)-5-fluoro-7,9-dihydrofuro[3,4-f]quinazolin-6-yl)-2-amino-7-fluorobenzo[b]thiophene-3-carbonitrile]",4.89,0.53,
"N#Cc1c(N)sc2c(F)cnc(-c3c4c(c5c(N6C7CCC6CN(O)C7)nc(OCC6(CN7CCC(=C(F)F)CC7)CC6)nc5c3F)COC4)c12 [Example 21, 2-Amino-4-(3-((1-((4-(difluoromethylene)piperidin-1-yl)methyl)cyclopropyl)methoxy)-5-fluoro-1-(3-hydroxyl-3,8-diazabicyclo[3.2.1]oct-8-yl)-7,9-dihydrofuro[3,4-f]quinazolin-6-yl)-7-fluorothieno[3,2-c]pyridine-3-carbonitrile]",,2.12,
